row,melting point [°C],Compound
1,283 to 285,Nc1nc2c(ncn2COC(CC(=O)OC23CC4CC(CC(C4)C2)C3)CC(=O)OC23CC4CC(CC(C4)C2)C3)c(=O)[nH]1 (centres undefined)
2,222 to 224,O=C(c1ccc(Nc2ccnc3cc(C(F)(F)F)ccc23)cc1)N1CCN(c2c(Cl)c(Cl)nc(Cl)c2Cl)CC1
3,78 to 79,COC(=O)Cc1ccccc1OCc1ccc(OCCc2nc(-c3ccccc3)oc2C)nc1
4,121 to 125,Cc1cc2c(cc1C)N(C)Cc1cscc1N2
5,65 to 67,CCCCOc1c2ccccc2c(C=O)c2ccccc12
6,68 to 70,Nc1cnn(-c2cccc(C(F)(F)F)c2)c(=O)c1-c1cccc(C(F)(F)F)c1
7,104 to 106,CCCCC(=O)N(Cc1ccc(-c2ccccc2-c2nnn[nH]2)cc1Br)[C@H](C(=O)OCc1ccccc1)C(C)C
8,265,COCCOC(=O)C1=C(C)Nc2cc[nH]c(=O)c2C1c1ccccc1[N+](=O)[O-] (centres undefined)
9,207 to 211,CCOC(=O)c1cn(-c2nc(NC(C)(C)C)c(F)cc2F)c2c(C)c(F)c(F)cc2c1=O
10,151 to 154,COc1c(CS(C)(=O)=O)cnc2ccccc12
11,151 to 156,CCOC(=O)c1cn(-c2cc(NC=O)c(F)cc2F)c2c(F)c(F)c(F)c(NCc3ccccc3)c2c1=O
12,200 to 202,CC1COc2c(F)c(F)cc(C(=O)O)c2N1 (centres undefined)
13,253 to 254,CCC(c1cc(C(=O)Nc2ccc(-c3ccc(C(=O)NS(C)(=O)=O)cc3C)cc2)ccc1OC)N(C)C (centres undefined)
14,260 to 270,O=C1c2ccc(S(=O)(=O)c3ccccc3)cc2C(=O)c2c1c(Oc1ccccc1)c1ccccc1c2Oc1ccccc1
15,110 to 112,CCCCCCCC/C=C\CCCCCCCC(=O)NCCNC(=O)CCNC(=O)C1OC(C)(C)OCC1(C)C (centres undefined)
16,169 to 172,Cc1nc(NCc2ccccc2)sc1C(=O)NCc1ccccc1
17,140 to 142,O=CNC[C@H](O)C(=O)OC=O
18,270 to 275,CS(=O)(=O)Oc1ccc2c(=O)c(C(=O)O)cn3c2c1CCC3
19,256 to 258,CNC(=O)c1c(N)n(C2CCCC2)c2nc(Cl)ccc2c1=O
20,181 to 194,FC(F)(F)c1ccc(-c2cc3ncnc(Nc4ccc5[nH]ccc5c4)c3s2)cc1
21,80 to 83,CCOC(=O)N=P(c1ccccc1)(c1ccccc1)c1ccccc1OC
22,138 to 139,C=C1N(CC)C(=O)OC12CCN(CCC=C(c1ccc(F)cc1)c1ccc(F)cc1)CC2
23,97.5 to 101,Cn1cc(C2=C(c3cccc(NC(O)CCO)c3)C(=O)NC2=O)c2ccccc21 (racemic)

row,melting point [°C],Compound
1,194 to 195,O=C1Nc2ccccc2N(C(=O)CN2CCCCC2CN2CCOCC2)c2ccccc21 (centres undefined)
2,132,CC(C)(C)ON=C1CCC(NC(=O)Oc2ccc([N+](=O)[O-])cc2)CC1 (centres undefined)
3,102 to 105,Clc1ccc(-n2nc(C3CC3)cc2C2CC2)nn1
4,148 to 149,NC1=NN(c2ccc(OCc3ccccc3)cc2)CC1
5,148,Cc1cc(C)nc(OC(C(=O)O)c2ccccc2)n1 (centres undefined)
6,126 to 128,CC(C)(C)CC(C)(C)c1cc(-n2nc3ccc(-c4cccnc4)cc3n2)c(O)c(C(C)(C)c2ccccc2)c1
7,57 to 59,CCCCCCCCCCSC(=O)CS(=O)(=O)Nc1c(C(C)C)cccc1C(C)C
8,> 300,CC(=O)OCc1nc2nc(O)cnc2c(=O)[nH]1
9,159 to 160,CC(C)CC(C(=O)O)N(C)C(C)C (centres undefined)
10,229 to 230,CC(C)n1nc(-c2c(-c3ccccc3)nn3cccc(O)c23)ccc1=O
11,69.5 to 71,CCCCCCCCCCCCOC(=O)Cc1nc(-c2ccc(Cl)cc2)oc1-c1ccco1
12,174 to 175,CCOC(=O)C(=O)CC(=O)c1cn(Cc2cccc(F)c2)c2ccccc2c1=O
13,168 to 170,CC(=O)OC1CCC2(C)C(=CCC3C2CCC2(C)C(C(C)CC(F)(F)CC(C)(C)O)CCC32)C1 (centres undefined)
14,185 to 187,NS(=O)(=O)c1ccc(-n2nccc2-c2ccc(Cl)cc2)cc1
15,127 to 131,CCOC(=O)C(C)Sc1ncnc2c(O)n(C)nc12 (centres undefined)
16,73 to 74,CC(C)[C@@H]1N(C(=O)OCc2ccccc2)CO[C@]1(O)C(F)(F)F
17,200 to 202,COc1cc2nc(N3CCN(C(=O)NC4CCCC4)CC3)nc(N)c2cc1OC
18,86 to 87,CC1CCN(C(=O)c2ccc3nonc3c2)CC1
19,48 to 52,CCCC(=O)c1c(C)cc(C)cc1O
20,114,O=CCN1C(=O)c2ccccc2C1=O
21,208 to 210,O=C1CCC(N2Cc3cc(CNC(=O)N4CCOCC4)ccc3C2=O)C(=O)N1 (centres undefined)
22,183 to 185,CC(NC(Nc1cc(F)cc(C(F)(F)F)c1)=C(C#N)S(C)(=O)=O)C(C)(C)C (centres undefined)
23,104 to 106,CCCN1CCC(n2nc(-c3c(-c4ccccc4)nn4ccccc34)ccc2=O)CC1

row,melting point [°C],Compound
1,160,CNC(=O)c1cc(N2CCCC2)cc(C)c1C(N)=O
2,137 to 138,CCc1nc2c(ccc3nc(C)c(C)nc32)cc1C
3,155,COc1ccccc1CNc1ccc2c(C(=N)c3ccc(F)cc3)cccc2n1
4,174,CCCCc1c(CO)nc2ccccc2c1OCc1ccc(-c2ccccc2C(=O)O)cc1
5,212 to 217,O=C1C2CC=C(SC3=CCC4C(=O)N(c5ccccc5)C(=O)C4C3)CC2C(=O)N1c1ccccc1 (centres undefined)
6,111,Cc1c(C)c2c(c(C)c1O)CC[C@@](C)(CCCl)O2
7,225 to 228,CSCC[C@H](NC(=O)OC(C)(C)C)C(=O)Oc1ccc(NC(C)=O)cc1
8,122 to 124,Cc1cccc(-c2nc3cccnn3c2-c2ccnc(NC(=O)N3CCc4ccccc4C3)c2)c1
9,178 to 179,Cn1cc(-c2cc3cccnc3[nH]2)c2cc(C(=O)NC(CO)CO)ccc21
10,125 to 127,N#Cc1ccc(C(=O)N[C@@H](Cc2c[nH]c3ccccc23)C(=O)O)cc1
11,124 to 125,CC(=O)c1ccc(OCc2ccccc2)c(OC/C=C/CN2CCC(c3noc4cc(F)ccc34)CC2)c1
12,260 to 261,CC1CC(=O)NN=C1c1ccc2[nH]c(CCCN3C(=O)c4ccccc4C3=O)nc2c1 (centres undefined)
13,130 to 135,O=C1CC2(CCCCC2Cc2ccccc2)SCCN1 (centres undefined)
14,215,CC(C)C1(C)Cc2cc(O)c(Cl)c(Cl)c2C1=O (centres undefined)
15,213 to 215,Cc1noc(C)c1COCCn1cnc2c(N)nc3ccccc3c21
16,114 to 115,CCN(CC)c1ccc(NC(C)=O)c(C)c1
17,66,COC(=O)C1=CC(=O)CCC1c1ccccc1 (racemic)
18,221 to 226,COc1cc(C(=O)O)ccc1Cc1cn(C)c2ccc(CCNC(=O)N3CCOCC3)cc12
19,167 to 170,COc1cn(-c2cccc(C(F)(F)F)c2)nc(-n2ccnc2-c2ccccc2)c1=O
20,120 to 122,CCc1ncnc2cc(OC)c(OCC3CO3)cc12 (centres undefined)
21,143,CC(=O)Nc1nc(C)c(S(=O)(=O)NCCN(C)C)s1
22,146,COc1cccc(OC)c1-c1ccc(C[C@H](NC(=O)c2c(Cl)cc(-c3cnccn3)cc2Cl)C(=O)O)cc1

row,Compound,melting point [°C]
1,CC(=O)OC1=CC(C)C2(C)C(=C1)CCC1C3CCC(=O)C3(C)CCC12 (centres undefined),104 to 107

# Reference: a melting point compilation (Tetko et al.; mined from patent text by program, amines drawn as free bases though some values may be those of a salt)
